In patent US11052153B2, “Highly branched alpha-D-glucans” (Purdue Research Foundation, priority 2012, dated 2021):

How the values were obtained:
physchem = type: physicochemical; details: 22 °C, pH 6.6, aqueous buffer, kinetic from dmso stock
Salmonella typhimurium = experiment: Minimum inhibitory concentration of thymol in BHI broth (turbidity); type: cell-based; details: Salmonella enterica, 37° C., 24 hours, 1.0% (v/v) inoculum
Description: The mixture was subjected to high speed homogenization. After homogenization, the dispersion was centrifuged to collect aqueous liquid. The concentration of thymol in this phytoglycogen-thymol liquid stock was determined to be about 400 μg/mL. As reference, a thymol-alone stock of 400 μg/mL in sodium acetate buffer (50 mM, pH 5.5) was prepared by adding thymol in the buffer and vortex. The phytoglycogen-thymol stock and thymol-alone stock were added to Brain Heart Infusion (BHI) broth to make the thymol concentrations of 12.5, 25, 50, 80, 100, and 125 μg/mL. To the glass tubes containing these broth liquids, Salmonella typhimurium culture (about 10^9 CFU/mL) was inoculated at a 1.0% (v/v) level, and all liquids were incubated at 37° C. for 24 hours. Thereafter, the tubes were photographed for comparing the turbidity.

[1] = Curcumin solubility in pH 6.5 10 mM NaAc buffer as affected by carriers; type: physicochemical; details: carrier 10 mg/mL; for Curcumin Solubility: excess curcumin homogenized
Description: Thereafter, 1.0 mL aliquot was drawn from each mixture and subjected to centrifugation. The supernatant was added to ethanol to extract curcumin.

| Compound | solubility at 2 h (physchem) [µg/mL] | MIC (Salmonella typhimurium) [µg/mL] | Carrier/curcumin ratio [1] | Curcumin Solubility [1] [µg/mL] |
| --- | --- | --- | --- | --- |
| COc1cc(/C=C/C(=O)CC(=O)/C=C/c2ccc(O)c(OC)c2)ccc1O [curcumin] | < 0.3 | – | – | – |
| Cc1ccc(C(C)C)c(O)c1 [thymol-alone, thymol] | – | > 125 | – | – |
| OC[C@H]1O[C@@H]2O[C@H]3[C@H](O)[C@@H](O)[C@@H](O[C@H]4[C@H](O)[C@@H](O)[C@@H](O[C@H]5[C@H](O)[C@@H](O)[C@@H](O[C@H]6[C@H](O)[C@@H](O)[C@@H](O[C@H]7[C@H](O)[C@@H](O)[C@@H](O[C@H]8[C@H](O)[C@@H](O)[C@@H](O[C@H]1[C@H](O)[C@H]2O)O[C@@H]8CO)O[C@@H]7CO)O[C@@H]6CO)O[C@@H]5CO)O[C@@H]4CO)O[C@@H]3CO [βCD, β-cyclodextrin] | – | – | 222/1 | 45.1 |
| hydroxypropyl β-cyclodextrin [HPβCD] | – | – | 91/1 | 110 |
